The values that follow come from patent US10590129B2 (Incozen Therapeutics Pvt. Ltd., priority 2010, dated 2020).

One series has as its system MKN-45 cells. Briefly: Inhibition of MKN-45 proliferation (MTT). The conditions noted are these: for inhibition at 0.1 µM / inhibition at 1 µM: Homo sapiens, MKN-45, MKN-45 proliferation; for inhibition at 0.1 µM / Inhibition (% Inhibition of MKN-45 proliferation): 0.1 μM. Format: cell-based, human. The procedure, abridged: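 Viability measured by MTT dye reduction on day 5 after compound addition on day 2 to MKN-45 gastric adenocarcinoma cells (high Met expression) seeded on day 1 in complete medium.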

SMILES strings stand for the structures. Bounds are passed on as bounds.

By inhibition is commonly meant the drop in the measured response relative to a control, in per cent. Read a high inhibition as a strong effect. Broadly, the melting point is the temperature of the solid-liquid transition. The compound `C=CCNC(=O)c1ccc(-c2ccc3nnn(Cc4ccc5ncccc5c4)c3n2)cc1F` [Ex 61, N-Allyl-2-fluoro-4-(3-(quinolin-6-ylmethyl)-3H-[1,2,3]triazolo[4,5-b]pyridin-5-yl) benzamide] gave a melting point of 162 to 164 °C. This compound displayed an inhibition at 0.1 µM in the series with MKN-45 cells of 75 to 100%. For the same compound, the inhibition at 1 µM in the series with MKN-45 cells (1 μM) lay within 75 to 100%.
In turn, `CONC(=O)c1ccc(-c2ccc3nnn(Cc4ccc5ncccc5c4)c3n2)cc1F` [Ex 62, 2-Fluoro-N-methoxy-4-(3-(quinolin-6-ylmethyl)-3H-[1,2,3]triazolo[4,5-b]pyridin-5-yl)benzamide] displayed a melting point of 197 to 199 °C. Also, the “Inhibition (% Inhibition of MKN-45 proliferation)” value with MKN-45 cells (MKN-45 proliferation) is “A (A = ≥75 to 100%)”. Besides, the “% inhibition @ 1 uM” value with MKN-45 cells (MKN-45 proliferation, 1 μM) was “A (A = ≥75 to 100%)”.
`CC(=O)Nc1ccc(-c2ccc3nnn(Cc4ccc5ncccc5c4)c3n2)cc1` [Ex 63, N-(4-(3-(quinolin-6-ylmethyl)-3H-[1,2,3]triazolo[4,5-b]pyridin-5-yl)phenyl)acetamide] gave a melting point of 220 to 223 °C. The compound further displayed an inhibition at 0.1 µM in the series on MKN-45 cells of less than 25%. The inhibition at 1 µM with MKN-45 cells (1 μM) fell in the range of 50 to 75%.
Regarding `Nc1ccc(-c2ccc3nnn(Cc4ccc5ncccc5c4)c3n2)cc1` [Ex 64, 4-(3-(quinolin-6-ylmethyl)-3H-[1,2,3]triazolo[4,5-b]pyridin-5-yl)aniline], the melting point lay in the range of 190 to 193 °C. Also, the inhibition at 1 µM with MKN-45 cells (1 μM) lay in the range of 25 to 50%.
Compound `COc1ccc(-c2ccc3nnn(Cc4ccc5ncccc5c4)c3n2)cc1OC` [Ex 65, 6-((5-(3,4-Dimethoxyphenyl)-3H-[1,2,3]triazolo[4,5-b]pyridin-3-yl)methyl)quinoline] had a melting point of 149 to 152 °C. The inhibition at 0.1 µM with MKN-45 cells was less than 25%. In the series on MKN-45 cells (1 μM), this compound had an inhibition at 1 µM of less than 25%.
In the case of `COc1ccc(-c2ccc3nnn(Cc4ccc5ncccc5c4)c3n2)cc1F` [Ex 66, 6-((5-(3-Fluoro-4-methoxyphenyl)-3H-[1,2,3]triazolo[4,5-b]pyridin-3-yl)methyl)quinoline], the melting point lay in the range of 187 to 190 °C. This compound came in with an inhibition at 0.1 µM with MKN-45 cells of less than 25%. This compound came in with an inhibition at 1 µM in the series with MKN-45 cells (1 μM) of 25 to 50%.
`Fc1ccc(-c2ccc3nnn(Cc4ccc5ncccc5c4)c3n2)cc1` [Ex 67, 6-((5-(4-Fluorophenyl)-3H-[1,2,3]triazolo[4,5-b]pyridin-3-yl)methyl)quinoline]: the melting point was in the range of 153 to 156 °C. This compound showed an inhibition at 0.1 µM with MKN-45 cells of less than 25%. In the series with MKN-45 cells (1 μM, number printed instead of class), this compound returned an inhibition at 1 µM of 13.8%.
Compound `Fc1ccccc1-c1ccc2nnn(Cc3ccc4ncccc4c3)c2n1` [Ex 68, 6-((5-(2-Fluorophenyl)-3H-[1,2,3]triazolo[4,5-b]pyridin-3-yl)methyl)quinoline] displayed a melting point of 164 to 166 °C. For the same compound, the inhibition at 0.1 µM with MKN-45 cells was less than 25%. In the series with MKN-45 cells (1 μM), this compound came in with an inhibition at 1 µM of less than 25%.
`CC(=O)Nc1cccc(-c2ccc3nnn(Cc4ccc5ncccc5c4)c3n2)c1` [Ex 69, N-(3-(3-(quinolin-6-ylmethyl)-3H-[1,2,3]triazolo[4,5-b]pyridin-5-yl)phenyl)acetamide] yielded a melting point of 198 to 201 °C. For the same compound, in the series on MKN-45 cells, the inhibition at 0.1 µM is less than 25%. Further, the inhibition at 1 µM with MKN-45 cells (1 μM) is less than 25%.
Compound `FC(F)(F)COc1cccc(-c2ccc3nnn(Cc4ccc5ncccc5c4)c3n2)c1` [Ex 70, 6-((5-(3-(2,2,2-Trifluoroethoxy)phenyl)-3H-[1,2,3]triazolo[4,5-b]pyridin-3-yl)methyl)quinoline] came in with a melting point of 151 to 154 °C. Also, the inhibition at 0.1 µM with MKN-45 cells is less than 25%. Also, the inhibition at 1 µM in the series with MKN-45 cells (1 μM) was less than 25%.
`Nc1cccc(-c2ccc3nnn(Cc4ccc5ncccc5c4)c3n2)c1` [Ex 71, 3-(3-(quinolin-6-ylmethyl)-3H-[1,2,3]triazolo[4,5-b]pyridin-5-yl)aniline] returned a melting point of 187 to 189 °C. Moreover, in the series with MKN-45 cells, the inhibition at 0.1 µM was less than 25%. This compound also came in with an inhibition at 1 µM in the series on MKN-45 cells (1 μM) of 25 to 50%.
With `CN(C)CCCNC(=O)c1ccc(-c2ccc3nnn(Cc4ccc5ncccc5c4)c3n2)cc1F` [Ex 72, N-(3-(dimethylamino)propyl)-2-fluoro-4-(3-(quinolin-6-ylmethyl)-3H-[1,2,3]triazolo[4,5-b]pyridin-5-yl)benzamide], the melting point was 148 to 150 °C. Also, in the series on MKN-45 cells (MKN-45 proliferation), the “Inhibition (% Inhibition of MKN-45 proliferation)” value is listed as “D (D = <25%)”.
Regarding `CC(C)Oc1ccc(-c2ccc3nnn(Cc4ccc5ncccc5c4)c3n2)cc1F` [Ex 75, 6-((5-(3-Fluoro-4-isopropoxyphenyl)-3H-[1,2,3]triazolo[4,5-b]pyridin-3-yl)methyl)quinoline], the melting point fell in the range of 128 to 130 °C. The same compound displayed an inhibition at 0.1 µM in the series with MKN-45 cells of less than 25%. Besides, in the series with MKN-45 cells (1 μM), the inhibition at 1 µM was less than 25%.
As to `CN(C)C(=O)CCNC(=O)c1ccc(-c2ccc3nnn(Cc4ccc5ncccc5c4)c3n2)cc1F` [Ex 76, N-(3-(dimethylamino)-3-oxopropyl)-2-fluoro-4-(3-(quinolin-6-ylmethyl)-3H-[1,2,3]triazolo[4,5-b]pyridin-5-yl)benzamide], the melting point is 163 to 165 °C. The inhibition at 0.1 µM with MKN-45 cells is 75 to 100%. For the same compound, the inhibition at 1 µM in the series on MKN-45 cells (1 μM) fell in the range of 50 to 75%.
The like results for `CN(C)C(=O)CNC(=O)c1ccc(-c2ccc3nnn(Cc4ccc5ncccc5c4)c3n2)cc1F` [Ex 77, N-(2-(dimethylamino)-2-oxoethyl)-2-fluoro-4-(3-(quinolin-6-ylmethyl)-3H-[1,2,3]triazolo[4,5-b]pyridin-5-yl)benzamide] were, in that order, 177 to 179 °C, 50 to 75% and 50 to 75%.
The like results for `O=C(NCC(=O)N1CCCC1)c1ccc(-c2ccc3nnn(Cc4ccc5ncccc5c4)c3n2)cc1F` [Ex 78, 2-Fluoro-N-(2-oxo-2-(pyrrolidin-1-yl)ethyl)-4-(3-(quinolin-6-ylmethyl)-3H-[1,2,3]triazolo[4,5-b]pyridin-5-yl)benzamide] were, in that order, 175 to 177 °C, 50 to 75% and 50 to 75%.
Compound `Fc1cc(-c2ccc3nnn(Cc4ccc5ncccc5c4)c3n2)ccc1OCC1CC1` [Ex 79, 6-((5-(4-(Cyclopropylmethoxy)-3-fluorophenyl)-3H-[1,2,3]triazolo[4,5-b]pyridin-3-yl)methyl)quinoline] gave a melting point of 160 to 162 °C. In the series with MKN-45 cells, this compound showed an inhibition at 0.1 µM of less than 25%. The compound further displayed an inhibition at 1 µM in the series on MKN-45 cells (1 μM) of 50 to 75%.
`CC(C)COc1ccc(-c2ccc3nnn(Cc4ccc5ncccc5c4)c3n2)cc1F` [Ex 80, 6-((5-(3-Fluoro-4-isobutoxyphenyl)-3H-[1,2,3]triazolo[4,5-b]pyridin-3-yl)methyl)quinoline] displayed a melting point of 115 to 157 °C. The inhibition at 0.1 µM in the series with MKN-45 cells is less than 25%. In the series with MKN-45 cells (1 μM), this compound showed an inhibition at 1 µM of 25 to 50%.
For `CN(C)CCCOc1ccc(-c2ccc3nnn(Cc4ccc5ncccc5c4)c3n2)cc1F` [Ex 81, 3-(2-Fluoro-4-(3-(quinolin-6-ylmethyl)-3H-[1,2,3]triazolo[4,5-b]pyridin-5-yl)phenoxy)-N,N-dimethylpropan-1-amine] the same measures were 102 to 105 °C, 50 to 75% and 75 to 100%.
The like results for `Fc1cc(-c2ccc3nnn(Cc4ccc5ncccc5c4)c3n2)ccc1OC1CCOCC1` [Ex 85, 6-((5-(3-Fluoro-4-(tetrahydro-2H-pyran-4-yloxy)phenyl)-3H-[1,2,3]triazolo[4,5-b]pyridin-3-yl)methyl)quinoline] were, in that order, 165 to 167 °C, less than 25% and 75 to 100%.
For `COCCOc1ccc(-c2ccc3nnn(Cc4ccc5ncccc5c4)c3n2)cc1F` [Ex 86, 6-((5-(3-Fluoro-4-(2-methoxyethoxy)phenyl)-3H-[1,2,3]triazolo[4,5-b]pyridin-3-yl)methyl)quinoline] the same measures were 122 to 124 °C, less than 25% and 75 to 100%.
Compound `CCCNC(=O)c1ccc(-c2ccc3nnn(Cc4ccc5ncccc5c4)c3n2)cc1F` [Ex 87, 2-Fluoro-N-propyl-4-(3-(quinolin-6-ylmethyl)-3H-[1,2,3]triazolo[4,5-b]pyridin-5-yl)benzamide] yielded a melting point of 157 to 159 °C. In the series with MKN-45 cells, this compound gave an inhibition at 0.1 µM of 75 to 100%. In the series on MKN-45 cells (1 μM), the inhibition at 1 µM was less than 25%.
The like results for `Cl.O=C(NC1CC1)c1ccc(-c2ccc3nnn(Cc4ccc5ncccc5c4)c3n2)cc1F` [Ex 89, N-Cyclopropyl-2-fluoro-4-(3-(quinolin-6-ylmethyl)-3H-[1,2,3]triazolo[4,5-b]pyridin-5-yl)benzamide hydrochloride] were, in that order, 105 to 107 °C, 75 to 100% and less than 25%.
For `O=C(NCC1CC1)c1ccc(-c2ccc3nnn(Cc4ccc5ncccc5c4)c3n2)cc1F` [Ex 90, N-(Cyclopropylmethyl)-2-fluoro-4-(3-(quinolin-6-ylmethyl)-3H-[1,2,3]triazolo[4,5-b]pyridin-5-yl)benzamide] the same measures were 120 to 122 °C, 50 to 75% and 75 to 100%.
The like results for `CCCCNC(=O)c1ccc(-c2ccc3nnn(Cc4ccc5ncccc5c4)c3n2)cc1F` [Ex 91, N-Butyl-2-fluoro-4-(3-(quinolin-6-ylmethyl)-3H-[1,2,3]triazolo[4,5-b]pyridin-5-yl)benzamide] were, in that order, 100 to 102 °C, 25 to 50% and 50 to 75%.
On to `O=C(NCc1ccco1)c1ccc(-c2ccc3nnn(Cc4ccc5ncccc5c4)c3n2)cc1F` [Ex 92, 2-Fluoro-N-(furan-2-ylmethyl)-4-(3-(quinolin-6-ylmethyl)-3H-[1,2,3]triazolo[4,5-b]pyridin-5-yl)benzamide], for which the melting point lay in the range of 144 to 147 °C. The compound further gave an inhibition at 1 µM with MKN-45 cells (1 μM) of less than 25%.
